Target: T1, HPK1 (Homo sapiens, UniProt Q92918)
T1 construct: A HiBiT tag was introduced by CRISPR on the N terminus of HPK1 in Jurkat cells; host or cells: Jurkat cells (ATCC TIB-152), monoclonal line with CRISPR knock-in of HiBiT at the endogenous HPK1 locus
Experiment: HPK1 Cellular HiBit Degradation Assay
Format: cell-based
Details: HiBiT HPK1 Jurkat cells, 24 hrs; for DC50: concentration at which 50% of HPK1 was remaining, read-out: DC50 Category; for Dmax: Jurkat, read-out: Dmax Category
Description: HPK1 Cellular HiBit Degradation Assay
A HiBiT tag was introduced by CRISPR on the N terminus of HPK1 in Jurkat cells (ATCC® TIB-152) to allow quantitation of HPK1 protein levels in a monoclonal human cell line. Cells were plated at 1×10^6 cells/mL, 30 uL/well (3×10^4 cells/well) in complete RPMI 1640 (10% heat inactivated FBS, 1% L-glutamine) in 384-well assay plates (Corning, cat. no. 3570). HPK1 chimeric targeting molecules (CTMs) were added in an 11 point dilution series (11-point, 3.16-fold) with a final assay concentration range of 10 uM to 0.1 nM. The parental Jurkat cell line, with no HiBiT insertion, was included in the assay as a background control. Cell treated with a DMSO vehicle control was used to determine the maximum signal defining 100% HPK1 in the cell. Cells were incubated for 24 hrs at 37° C./5% CO2. Following incubation, 30 uL of complete Nano-Glo HiBiT Lytic Detection Reagent (Promega cat. no. N3040) was added. Cells were incubated for 10 min at room temperature and luminescence was read on an EnVision plate reader (Perkin Elmer, 0.1 sec per well). Viability was assessed in the same plate using Cell Titer Fluor (Promega) and read on an EnVision plate reader to ensure results were not the effect of cytotoxicity. Percent HPK1 remaining per sample was calculated as follows:
[formula] % HPK1 remaining values were plotted as a function of compound concentration and curves were fit using the Prism (GraphPad) equation “log(inhibitor) vs response−Variable slope (four parameters)”. Dmax values were calculated by identifying the lowest % remaining and subtracting from 100. DC50 values were determined by extrapolating from the curve the concentration at which 50% of HPK1 was remaining based on the DMSO control.
HiBiT HPK1 Jurkat cell lines were used to evaluate the total protein levels of HPK1 in a robust human cellular high throughput format. The level of HPK1 remaining following treatment with HPK1 CTMs is reported as Dmax (maximum degradation) achieved at 24 hours when compared to vehicle treated controls. […] These decreases were not a result of cytotoxicity measured by a viability assessment.

[1] = maximum degradation vs DMSO vehicle control

T1 sequence (Q92918 whole entry): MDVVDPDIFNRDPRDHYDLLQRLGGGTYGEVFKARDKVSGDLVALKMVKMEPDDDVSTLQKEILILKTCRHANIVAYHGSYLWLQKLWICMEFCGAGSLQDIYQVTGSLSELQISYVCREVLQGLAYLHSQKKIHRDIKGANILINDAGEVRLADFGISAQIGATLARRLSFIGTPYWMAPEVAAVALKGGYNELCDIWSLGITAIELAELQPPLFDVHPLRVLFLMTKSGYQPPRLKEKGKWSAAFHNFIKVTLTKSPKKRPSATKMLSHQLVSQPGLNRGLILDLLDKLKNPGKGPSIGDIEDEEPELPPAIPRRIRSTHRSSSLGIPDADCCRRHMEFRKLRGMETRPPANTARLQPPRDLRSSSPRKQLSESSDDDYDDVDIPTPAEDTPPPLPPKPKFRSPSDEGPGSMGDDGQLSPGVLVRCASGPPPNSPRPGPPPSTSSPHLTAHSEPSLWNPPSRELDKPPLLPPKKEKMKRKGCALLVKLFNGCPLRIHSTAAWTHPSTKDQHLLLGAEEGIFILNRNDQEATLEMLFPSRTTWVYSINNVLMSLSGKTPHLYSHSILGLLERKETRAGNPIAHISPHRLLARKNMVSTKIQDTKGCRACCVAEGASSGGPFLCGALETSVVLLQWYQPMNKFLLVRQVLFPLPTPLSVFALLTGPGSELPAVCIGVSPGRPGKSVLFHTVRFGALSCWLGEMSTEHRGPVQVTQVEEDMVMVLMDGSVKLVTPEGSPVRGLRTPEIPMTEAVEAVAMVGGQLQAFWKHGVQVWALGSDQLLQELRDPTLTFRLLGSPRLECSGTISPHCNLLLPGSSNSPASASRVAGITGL

Compound `CC(C)n1cnc2cc(-c3ccc4c(c3)N([C@H]3C[C@@H](N5CCCCC5)C3)C(=O)C43CCN(C(=O)[C@@H]4CCN(C(=O)[C@H]5CC[C@H](Nc6cccc7c6C(=O)N(C6CCC(=O)NC6=O)C7=O)CC5)C4)CC3)nc(Nc3ccncc3F)c21` (mixture of isomers) [Example 11, 2-[(3RS)-2,6-dioxopiperidin-3-yl]-4-{[(1R,4R)-4-[(3R)-3-[(6-{4-[(3-fluoropyridin-4-yl)amino]-3-(propan-2-yl)-3H-imidazo[4,5-c]pyridin-6-yl}-2-oxo-1-[(1S,3S)-3-(piperidin-1-yl)cyclobutyl]-1,2-dihydrospiro[indole-3,4′-piperidin]-1′-yl)carbonyl]pyrrolidine-1-carbonyl]cyclohexyl]amino}-2,3-dihydro-1H-isoindole-1,3-dione] has a DC50 of 100 to 500 nM and a Dmax [1] of 50 to 70%.
In the case of `CC(C)n1cnc2cc(-c3ccc4c(c3)N([C@H]3C[C@@H](N5CCCCC5)C3)C(=O)C43CCN(C(=O)[C@@H]4CCN(C(=O)[C@H]5CC[C@H](Nc6cncc(C7CCC(=O)NC7=O)c6)CC5)C4)CC3)nc(Nc3ccccc3F)c21` (mixture of isomers) [Example 12, (3RS)-3-(5-{[(1R,4R)-4-[(3R)-3-[(6-{4-[(2-fluorophenyl)amino]-3-(propan-2-yl)-3H-imidazo[4,5-c]pyridin-6-yl}-2-oxo-1-[(1S,3S)-3-(piperidin-1-yl)cyclobutyl]-1,2-dihydrospiro[indole-3,4′-piperidin]-1′-yl)carbonyl]pyrrolidine-1-carbonyl]cyclohexyl]amino}pyridin-3-yl)piperidine-2,6-dione], the DC50 is reported as 500 to 1000 nM and the Dmax [1] is reported as 70 to 85%.
Work on `CC(C)n1cnc2cc(-c3ccc4c(c3)N([C@H]3C[C@@H](N5CCCCC5)C3)C(=O)C43CCN(C(=O)[C@@H]4CCN(C(=O)[C@H]5CC[C@H](Oc6ccc(C7CCC(=O)NC7=O)cn6)CC5)C4)CC3)nc(NC3CC3)c21` (mixture of isomers) [Example 16, (3RS)-3-(6-{[(1R,4R)-4-[(3R)-3-({6-[4-(cyclopropylamino)-3-(propan-2-yl)-3H-imidazo[4,5-c]pyridin-6-yl]-2-oxo-1-[(1S,3S)-3-(piperidin-1-yl)cyclobutyl]-1,2-dihydrospiro[indole-3,4′-piperidin]-1′-yl}carbonyl)pyrrolidine-1-carbonyl]cyclohexyl]oxy}pyridin-3-yl)piperidine-2,6-dione] yielded a DC50 of 500 to 1000 nM and a Dmax [1] of 70 to 85%.
With `CC(C)n1cnc2cc(-c3ccc4c(c3)N([C@H]3C[C@@H](N5CCCCC5)C3)C(=O)C43CCN(C(=O)[C@@H]4CCN(C(=O)[C@H]5CC[C@H](Oc6ccc(C7CCC(=O)NC7=O)cn6)CC5)C4)CC3)nc(Nc3ccccc3F)c21` (mixture of isomers) [Example 17, (3RS)-3-(6-{1[(1R,4R)-4-[(3R)-3-[(6-{4-[(2-fluorophenyl)amino]-3-(propan-2-yl)-3H-imidazo[4,5-c]pyridin-6-yl}-2-oxo-1-[(1S,3S)-3-(piperidin-1-yl)cyclobutyl]-1,2-dihydrospiro[indole-3,4′-piperidin]-1′-yl)carbonyl]pyrrolidine-1-carbonyl]cyclohexyl]oxy}pyridin-3-yl)piperidine-2,6-dione] the DC50 was less than 100 nM and the Dmax [1] was greater than 85%.
`CC(C)n1cnc2cc(-c3ccc4c(c3)N([C@H]3C[C@@H](N5CCCCC5)C3)C(=O)C43CCN(C(=O)[C@@H]4CCN(C(=O)[C@H]5CC[C@H](Oc6ccc(C7CCC(=O)NC7=O)cn6)CC5)C4)CC3)nc(Nc3ccncc3F)c21` (mixture of isomers) [Example 18, (3RS)-3-(6-{[(1R,4R)-4-[(3R)-3-[(6-{4-[(3-fluoropyridin-4-yl)amino]-3-(propan-2-yl)-3H-imidazo[4,5-c]pyridin-6-yl}-2-oxo-1-[(1S,3S)-3-(piperidin-1-yl)cyclobutyl]-1,2-dihydrospiro[indole-3,4′-piperidin]-1′-yl)carbonyl]pyrrolidine-1-carbonyl]cyclohexyl]oxy}pyridin-3-yl)piperidine-2,6-dione] was tested, and the DC50 was 100 to 500 nM and the Dmax [1] was 70 to 85%.
In the case of `CC(C)n1cnc2cc(-c3ccc4c(c3)N([C@H]3C[C@@H](N5CCCCC5)C3)C(=O)C43CCN(C(=O)[C@@H]4CCN(C(=O)[C@H]5CC[C@H](Oc6ccc(C7CCC(=O)NC7=O)cn6)CC5)C4)CC3)nc(NC3CCOCC3)c21` (mixture of isomers) [Example 19, (3RS)-3-(6-{[(1R,4R)-4-[(3R)-3-[(6-{4-[(oxan-4-yl)amino]-3-(propan-2-yl)-3H-imidazo[4,5-c]pyridin-6-yl}-2-oxo-1-[(1S,3S)-3-(piperidin-1-yl)cyclobutyl]-1,2-dihydrospiro[indole-3,4′-piperidin]-1′-yl)carbonyl]pyrrolidine-1-carbonyl]cyclohexyl]oxy}pyridin-3-yl)piperidine-2,6-dione], the DC50 is reported as less than 100 nM and the Dmax [1] is reported as 70 to 85%.
`CC(C)n1cnc2cc(-c3ccc4c(c3)N([C@H]3C[C@@H](N5CCCCC5)C3)C(=O)C43CCN(C(=O)[C@@H]4CCN(C(=O)C5CCN(c6ccc(C7CCC(=O)NC7=O)cn6)CC5)C4)CC3)nc(NC3CC3)c21` (mixture of isomers) [Example 23, (3RS)-3-(6-{4-[(3R)-3-({6-[4-(cyclopropylamino)-3-(propan-2-yl)-3H-imidazo[4,5-c]pyridin-6-yl]-2-oxo-1-[(1S,3S)-3-(piperidin-1-yl)cyclobutyl]-1,2-dihydrospiro[indole-3,4′-piperidin]-1′-yl}carbonyl)pyrrolidine-1-carbonyl]piperidin-1-yl}pyridin-3-yl)piperidine-2,6-dione] showed a DC50 of less than 100 nM and a Dmax [1] of 70 to 85%.
In the case of `CC(C)n1cnc2cc(-c3ccc4c(c3)N(C3CC(N5CCCCC5)C3)C(=O)C43CCN(C(=O)[C@@H]4CCN(C(=O)C5CCN(c6ccc(C7CCC(=O)NC7=O)cn6)CC5)C4)CC3)nc(Nc3ccncc3F)c21` (mixture of isomers) [Example 25, (3RS)-3-(6-{4-[(3R)-3-[(6-{4-[(3-fluoropyridin-4-yl)amino]-3-(propan-2-yl)-3H-imidazo[4,5-c]pyridin-6-yl}-2-oxo-1-[(1S,3S)-3-(piperidin-1-yl)cyclobutyl]-1,2-dihydrospiro[indole-3,4′-piperidin]-1′-yl)carbonyl]pyrrolidine-1-carbonyl]piperidin-1-yl}pyridin-3-yl)piperidine-2,6-dione], the DC50 is reported as less than 100 nM and the “Dmax Category” value [1] is reported as “B (B: >70%-<85%)”.
`CC(C)n1cnc2cc(-c3ccc4c(c3)N([C@H]3C[C@@H](N5CCCCC5)C3)C(=O)C43CCN(C(=O)[C@H]4CC[C@H](C(=O)N5CCC(Nc6ccc(C7CCC(=O)NC7=O)cn6)CC5)CC4)CC3)nc(Nc3ccncc3F)c21` (mixture of isomers) [Example 27] gave a DC50 of less than 100 nM and a Dmax [1] of 50 to 70%.
`CC(C)n1cnc2cc(-c3ccc4c(c3)N([C@H]3C[C@@H](N5CCCCC5)C3)C(=O)C43CCN(C(=O)[C@H]4CC[C@H](C(=O)N5CCC(Oc6ccc(C7CCC(=O)NC7=O)cn6)CC5)CC4)CC3)nc(Nc3ccccc3F)c21` (mixture of isomers) [Example 28, (3RS)-3-[6-({1-[(1R,4R)-4-[(6-{4-[(2-fluorophenyl)amino]-3-(propan-2-yl)-3H-imidazo[4,5-c]pyridin-6-yl}-2-oxo-1-[(1S,3S)-3-(piperidin-1-yl)cyclobutyl]-1,2-dihydrospiro[indole-3,4′-piperidin]-1′-yl)carbonyl]cyclohexanecarbonyl]piperidin-4-yl}oxy)pyridin-3-yl]piperidine-2,6-dione] showed a DC50 of less than 100 nM and a Dmax [1] of 70 to 85%.
